# Data taken from patent publication US5594009A, “Fused pyrrolocarbazoles” (priority 1995, dated 1997).
# Columns and labels:
# [1] = tested on: chick dorsal root ganglion neurons; assay: DRG Neurite Outgrowth Assay; assay type: cell-based; details: compound concentration 200 nM; 48 hours
# Procedure: Fused pyrrolocarbazoles promoted nerve fiber (i.e., neurite) outgrowth in explant (i.e., primary) cultures of chick dorsal root ganglion neurons. Dorsal root ganglion (i.e., DRG) nerve fiber outgrowth was increased when a fused pyrrolocarbazole was added to cultures at a concentration of 200 nM (Table IV). Control cultures consisted of: 1) no added NGF or fused pyrrolocarbazole ("Control"), or 2) 50 ng/ml NGF, a neurotrophin known to promote neurite extension in DRG cultures ("NGF").
# Methods: Dorsal root ganglia were dissected from chick embryos (embryonic day 9) and individual ganglia were plated on poly-1-ornithine and laminin coated plates. A fused pyrrolocarbazole or 50ng/ml NGF was each added to independent cultures after allowing a 1-2 hour cell attachment period. Explants were cultured for 48 hours in serum-free N2 medium supplemented with 0.05% BSA (Bottenstein et al., PNAS USA 76:514-517 (1979)). Cultures were maintained at 37° C. in a humidified atmosphere, 5% CO2 /95% air. Nerve fiber outgrowth was assessed by the density and length of neurites. It should be apparent to those skilled in the art that neurite extension assays are semi-quantitative and involve a visual comparison between control and experimental neuronal cell cultures (Alberts et al., Molecular Biology of the Cell, 2ed. Garland Publishing, Inc., New York (1989).
# protein kinase C = assay: PKC Activity Inhibition Assay; assay type: biochemical
# Procedure: Fused pyrrolocarbazoles inhibited the activity of protein kinase C (Table VI). The protein kinase C assay has been disclosed (Murakata et al., U.S. Pat. No. 4,923,986; Kikkawa et al., J. Biol. Chem. 257:13341-13348 (1982)). The assay was performed with several concentrations of fused pyrrolocarbazoles. The concentration at which protein kinase C was 50% inhibited (IC50) was determined.
# [2] = tested on: ChAT activity of basal forebrain cultures; assay: Basal Forebrain ChAT Activity Assay; assay type: cell-based, rat
# Summary of the method: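 Basal forebrain neurons from E17–18 rat embryos were Dispase-dissociated and plated at 5×10^4 cells/well on poly-ornithine/laminin. Cultures were kept in serum-free N2 medium with 0.05% BSA at 37° C. ChAT activity was measured 5 days after plating as the read-out for compound-induced increase.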
# [3] = tested on: indoleamine 2,3-dioxygenase (IDO) mRNA in THP-1 cells; assay: Inhibition of Induction By IFNγ of IDO mRNA; assay type: cell-based; details: Homo sapiens, compound 400 nM, IFNγ 400 units/ml, IDO/GAPD mRNA ratio, 48 hours, read-out: IDO mRNA, Phosphorimager units, % of IFNγ-treated cells
# Procedure: Fused pyrrolocarbazoles in accordance with our invention were tested for their ability to inhibit the induction by IFNγ of indoleamine 2,3-dioxygenase (IDO) mRNA in THP-1 cells, a human monocyte cell line.
# Cell Culture: THP-1 cells (American Type Culture Collection, Rockville, Md.), a human monocytic leukemia cell line, were grown in RPMI 1640 medium (Mediatech, Herndon Valley, Va.) with 50 μM 2-mercaptoethanol and 10% fetal bovine serum. Cells were plated in T75 culture flasks, at 4×10^4 cells/cm^2 in 10 ml of medium, and were immediately treated with fused pyrrolocarbazoles at various concentrations. After 30 minutes recombinant (E. coli) IFNγ (Boehringer Mannheim Corporation,Indianapolis, Ind.) was added at 200-400 units/ml. Cells were incubated (37° C., 5% CO2 /95% Air) for 48 hours after treatment.
# RNA Isolation: Cells were pelleted by centrifugation (50× g, 7 min.) and medium was decanted. The cells were then washed two times with phosphate buffered saline pH 7.2 (PBS) (Mediatech, Herndon Valley, Va.). The washed cell pellet was lysed in 2 ml RNAzol B (Tel-Test, Inc., Friendswood, Tex.). RNA was isolated by chloroform extraction, precipitated, and washed following the "RNAzol B isolation of RNA" protocol accompanying this product. RNA was then solubilized in H2 O, and the concentration and purity were determined by reading the absorbance at A260 nm and A280 nm. Finally, the RNA was reprecipitated in ethanol, overnight at -20° C.
# cDNA Probes: Indoleamine 2,3-dioxygenase (IDO) cDNA was received from Sohan L. Gupta, Ph. D. (Hipple Cancer Research Center, Dayton, Ohio) (see Da., W. & Gupta, S. L. 168 Biochem. Biophys. Res. Commun. 1, 1990 and Hassanain, H. H. et al. 268 J. Biol. Chem. 5077, 1993). Glyceraldehyde-3-phosphate dehydrogenase (GAPD) cDNA was obtained through American Type Culture Collection (Rockville, Md.). These cDNA's were produced and purified using standard methods (see, Sambrook, Fritsch, Maniatis (1989) Molecular Cloning a Laboratory Manual/Second Edition 1, 1.21-1.24, 1.74-1.81, hereinafter in this Example, "Maniatis a") using Qiagen plasmid purification kits (Qiagen Inc., Chatsworth, Calif.). DNA concentration and purity were determined by absorbance at 280 nm and 260 nm. Specific DNA inserts were cut out by standard methods using restriction enzymes, and subsequently separated on agarose gels as in Maniatis (see, Sambrook, Fritsch, Maniatis (1989) Molecular Cloning a Laboratory Manual/Second Edition 1, 6.9-6.15, hereinafter in this Example, "Maniatis b"). cDNA probes were further purified for [^32 P] labeling using the Geneclean II DNA purification kit (BIO 101, Inc., La Jolla, Calif.). Probes were labeled with dCTP-α-^32 P (Amersham Corp., Arlington Heights, Ill.) by random primer labeling, using the Prime-a-GeneLabeling System (Promega Corp., Madison, Wis.).
# Analysis and quantification of mRNA: IDO mRNA was detected by Northern blot analysis (see Maniatis a, p. 7.39-7.51) using standard methods. […] Quantification of IDO mRNA was carried out using a phosphorimager (Molecular Dynamics) in which density (i.e., amount of RNA) is expressed as relative phosphorimager units. […] GAPD mRNA measurement by phosphorimager quantification of Northern blots serves as a means to normalize for potential sample to sample differences in the amount of total RNA loaded on gels. […]
smiles,measurement,setting,value
O=C1NCc2c1c1c(c3[nH]c4ccccc4c23)Cc2ccccc2-1 [Compound I-2],DRG Neurite Outgrowth,[1],modest to dense outgrowth of neurites
same,IC50,protein kinase C,110 nM
same,ChAT Activity (% of Control),[2]; 100 nM,inactive
same,ChAT Activity (% of Control),[2]; 1000 nM,inactive
same,activity at 0.25 µM,"[2]; Rattus norvegicus, 120 h, 250 nM, read-out: ChAT Activity (% of Control)",137%
same,activity at 0.5 µM,"[2]; Rattus norvegicus, 120 h, 500 nM, read-out: ChAT Activity (% of Control)",137%
same,mrna remaining at 0.4 µM,[3],55%
